Data from patent US10369123B2, “Perk activator for the treatment of neurodegenerative diseases” (DEUTSCHES ZENTRUM FÜR NEURODEGENERATIVE ERKRANKUNGEN E.V. …, priority 2014, dated 2019).
“Also recorded” adds a separate entry of the source.

Legend:
[1] = tested on: LUHMES neurons; experiment: Morphological inspection and counts of viable cells; format: cell-based, human; conditions: co-treatment with PERK activator
Protocol: (§1) Nunc™ Nunclon™ Delta 6-well (for protein and mRNA) or 48-well (for cell assays) plates (Thermo Fisher Scientific, Waltham, Mass., USA) were coated with 100 μg/ml poly-L-lysine (Sigma-Aldrich, St. Louis, Mo., USA) and 5 μg/ml fibronectin (Sigma-Aldrich). LUHMES (Lund Human Mesencephalic) cells, derived from human embryonic ventral mesencephalic cells by conditional immortalization (Tet-off v-myc over-expression) were seeded out in a concentration of 130,000 cells/cm^2 to achieve a confluence of 50%. They were then differentiated for 8 days in a medium of DMEM/F12 (Sigma-Aldrich), 1 μg/ml tetracycline, […] and 490 μg/ml dbcAMP into post-mitotic neurons with a dopaminergic phenotype (Lotharius et al. 2005).
For all experiments with annonacin, the medium was replaced during the intoxication period with new medium containing glucose levels reduced to 250 μM, i.e. the physiological concentration in the human brain.
The protection by the PERK activator against annonacin and 4R-tau protein overexpression was also evident on morphological inspection of the cells. […] Lentiviral 4R-tau overexpression had similar effects. […] Cell counts of viable cells with intact nuclear and somatic morphology were counted in randomly selected 1300×1000 sized areas in 4 biological replicates each, confirming the protective effects of Pa.

[2] = tested on: 4R-tau and 3R-tau isoforms; experiment: Western blot of 3R-/4R-tau isoforms, annonacin model; format: cell-based, human; conditions: annonacin 25 nM + PERK activator, 48 h
Protocol: as §1, with “2005). […]” for “2005).”
Protein was extracted by scraping the cells from the culture plate with Mammalian Protein Extraction Reagent (M-PER, Thermo Fisher Scientific) and 1× cOmplete Protease Inhibitor Cocktail Tablets (Hoffmann-La Roche, Basel, Switzerland) and 1× PhosSTOP Phosphatase Inhibitor Cocktail Tablets (Hoffmann-La Roche). […] Protein concentrations were determined using the BCA kit (Thermo Fisher Scientific) by heating the samples at 60° C. for 30 min and measuring the absorption on the NanoDrop 2000c Spectrophotometer (Thermo Fisher Scientific). […]

[3] = tested on: P301S tau transgenic mice; experiment: Rotarod test; format: in vivo, mouse; conditions: 2 mg/kg i.p. once daily for 6 weeks, 23 weeks of age, vs saline
Protocol: All animal work was conducted either on CR57BL/6 mice, obtained from Charles River Laboratories, Wilmington, Mass., USA, or on homozygous transgenic mice overexpressing human tau with the P301S mutation on a C57BL/6 background, originally developed by Michel Goedert (Xu et al. 2014), obtained by own breeding. Animals were kept at 23±1° C. under standard 12 h light-dark cycle with free access to food and water. They were handled according to the EU Council Directive 2010/63/EU, the Guide for the Care and Use of Laboratory Animals (National Research Council 2011) and the guidelines of the local institutional committee. The experiments were authorized by the local authority “Regierung von Oberbayern” under application number 55.2-1-54-2532-165-13.
5 mg of the PA compound CCT020312 (EMD Millipore, Billerica, Mass., USA) was first dissolved in 100 μl sterile DMSO (AppliChem, Darmstadt, Germany) and then diluted in sterile saline (B. Braun Medical, Melsungen, Germany) to achieve a stock solution of […].
For the efficacy trial in the late disease stage (Xu et al. 2014), P301S mice and wild type littermates received once daily i.p. injections of 2 mg/kg CCT020312 or saline from 17 to 22 weeks of age (n=12 for CCT020312 treated P301S mice, n=9 for other groups); they were analyzed with the Rotarod test in the 23rd week of age. […]

With `CCN(CC)CCC(=O)N1N=C(c2c(-c3ccccc3)c3cc(Br)ccc3[nH]c2=O)CC1c1ccc(Br)cc1` (stereo not drawn) [CCT020312, 6-bromo-3-[5-(4-bromo-phenyl)-1-(3-diethylamino-propionyl)-4,5-dihydro-1H-pyrazol-3-yl]-4-phenyl-1H-quinolin-2-one] the “number of viable cells: toxicity of annonacin and 4R-tau overexpression” value [1] was “mitigated these effects”, the 4R-tau protein amount [2] was “reduced” and the “Rotarod performance (latency to fall)” value [3] was “significantly improved; also recorded: increased performance”.
